Entries after “also recorded” stand apart in the source; their conditions may differ.
Legend:
Wistar Ratte = assay: Mechanical allodynia (von Frey filament) after chronic constriction injury (CCI) of the left sciatic nerve, rat; assay type: in vivo; conditions: rats, day 10-12 after CCI
Experimental: (§1) Zum Beweis der Effektivität der Bitopertin-Applikation zur Behandlung neuropathischer Schmerzen wurde eine operative Ligatur des linken N. ischiadicus (Chronic Constriction Injury; CCI) der Wistar Ratte sowie C57BL/6-Maus induziert. Am Tag 10-12 nach CCI erhielten 2 Gruppen der Ratten randomisiert und verblindet eine einmalige orale Dosierungen von Bitopertin (0,3; 1 mg/kg), während die Kontrollgruppen Vehikel erhielten. Mechanische Allodynie wurde mittels eines halbautomatischen Frey Filaments (Ugo Basile) vor und 10-12 Tage nach CCI, sowie 1, 2, 4, 8 und 24 h nach Applikation von Bitopertin bzw. Vehikel überprüft. Zusätzlich wurde die Wirkung von Bitopertin 10 Tage nach CCI in Mäusen bei kontinuierlicher Langzeitapplikation mittels subkutan implantierter, osmotischer Mini-Infusionspumpen (2 mg/kg/Tag) über 27 Tage untersucht. Neuromotorische Wirkungen von Bitopertin in Mäusen wurden im Open-Field-Test 1 h nach Injektion bzw. bei kontinuierlicher Applikation nach 12 Tagen analysiert. Statistik: Alle Daten sind dargestellt als Mittelwerte ± Standardfehler; ANOVA und Bonferroni post hoc Test; Signifikanzniveau p<0,05.
In Figur 3 ist der Effekt des GlyT1-Inhibitors Bitopertin auf die mechanische Allodynie bei Nagern mit Neuropathie nach CCI dargestellt. Abbildung (A) zeigt den Effekt des GlyT1-Inhibitors Bitopertin auf die einmalige orale Applikation bei Ratten 0,3 mg/kg; n=9-11. […]

C57BL/6-Maus = assay: Mechanical allodynia (von Frey filament, withdrawal threshold) after chronic constriction injury (CCI), mouse; assay type: in vivo
Mäusen = conditions: in vivo
Experimental: as §1

## C[C@H](Oc1ccc(S(C)(=O)=O)cc1C(=O)N1CCN(c2ncc(C(F)(F)F)cc2F)CC1)C(F)(F)F [Bitopertin]
Wistar Ratte; single oral dose 0,3 mg/kg, effect two and four hours after administration, Figur 3 A
  durch CCI induzierte mechanische Allodynie: Reduktion der durch CCI induzierten mechanischen Allodynie; also recorded: signifikanten Verminderung von mechanischer Allodynie
Wistar Ratte; single oral dose 1 mg/kg, compared with 0,3 mg/kg, Figur 3 B
  durch CCI induzierte mechanische Allodynie: vergleichbar ausprägten Effekten; also recorded: signifikanten Verminderung von mechanischer Allodynie
C57BL/6-Maus; mice after CCI, continuous subcutaneous administration 2 mg/kg/Tag by osmotic mini-pump over 27 days, effect from 7 days after start until end of therapy, Figur 3 C, 2 mg/kg
  Schmerzempfindlichkeit der neuropathischen Extremität (mechanische Allodynie): verminderten Schmerzempfindlichkeit der neuropathischen Extremität; also recorded: signifikanten Verminderung von mechanischer Allodynie
C57BL/6-Maus; mice, intraperitoneal 2 mg/kg versus Kochsalzlösung 0,9%, Figur 1
  Rückzugsschwellenwerte in Antwort auf eine mechanische Stimulation der neuropathischen Extremität: deutliche Anhebung der gemessenen Rückzugsschwellenwerte
Mäusen
  unerwünschte neuromotorische Wirkungen: nicht zu unerwünschten neuromotorischen Wirkungen
Mäusen; 2 mg/kg
  Aktivität (Open-field Test): keine Veränderungen der Aktivität
Mäusen; sc, 2 mg/kg
  Wegstrecken und Aufenthaltsdauern (Open-Field-Test): keine Unterschiede in Wegstrecken und Aufenthaltsdauern
